Results: patent EP4810483A1, “6- AND 5-HETEROARYL DERIVATIVES AND USE THEREOF” (CMS Research & Development Pte. Ltd., priority 2023, dated 2025)
Like-named read-outs stand apart in the source and are kept apart here. One block for each molecule: values may come before it.

Columns and labels:
[1] = Pharmacokinetic evaluation in mice (IV and PO); format: in vivo; conditions: mouse, plasma, CD-1 mice; for half-life: IV, read-out: Half-life T1/2 (IV) (converted); for AUC(0-t): PO, read-out: Area under the concentration-time curve AUC0-last PO; for bioavailability: read-out: Bioavailability F; for clearance: read-out: Clearance CL; for Cmax: read-out: Peak plasma concentration Cmax; for Vd: read-out: Volume of distribution Vdss
Experimental: Test Method 2: Pharmacokinetic Evaluation in Mice
Assay method: Test compounds were mixed with 5% DMSO / 60% polyethylene glycol (PEG400) / 35% water, vortexed and sonicated to obtain a clear 0.2 mg/mL solution, which was then filtered through a microporous membrane before use. Male CD-1 mice weighing 25-35 g were selected. The candidate compound solution was administered intravenously at a dose of 1 mg/kg. The candidate compound solution was orally administered at a dose of 5 mg/kg after fasting. Blood samples (25 µL each) were collected at 0.083, 0.25, 0.5, 1, 2, 4, 8, 12 and 24 hours after administration, and placed into commercial anticoagulant tubes pre-containing EDTA-K2. The tubes were centrifuged for 10 minutes to separate plasma, which was then stored at -60°C. The content of the target compound in plasma samples was determined by LC/MS/MS method, and pharmacokinetic parameters were calculated using Phoenix WinNonlin software (Pharsight, USA).
Tlast: time of the last detection point. AUC0-last: (Area Under the Concentration-Time Curve) refers to the area enclosed by the plasma drug concentration curve and the time axis. F (Bioavailability) is a measure of the rate and extent to which a drug is absorbed into the systemic circulation, serving as a critical indicator for evaluating the degree of drug absorption. […]

[2] = target: T1, hKCNQ2/3 (Homo sapiens, UniProt O43525+O43526); assay: cell-based
T1 construct: expressed in transfected cells; host or cells: CHO
Excerpt: Test Method 1: hKCNQ2/3 Thallium Flux Assay
Test Objective: To test the in vitro concentration-response relationship of compounds using FLIPR thallium flux assay in CHO cell lines stably expressing hKCNQ2/3.
According to the split ratio, the cells were transferred to another T-75 flask containing complete cell growth medium. Note: To maintain logarithmic growth, the cells should be kept in a subconfluent monolayer state. Based on the cell doubling time, the cells were passaged every 2-3 days.
• (1) Day 1 - Cell preparation: Cells were digested as described above, and cell density and viability were determined using a Cell Countess. The volume of the single-cell suspension was adjusted with complete cell growth medium. Then, hKCNQ2/3_CHO cells were seeded onto PDL-precoated 384-well plates at a density of approximately 20,000 cells/well (30 µL/well). The plates were then incubated overnight in a 37°C, 5% CO2 humidified air incubator. • (2) Day 2 - Compound preparation: Test compounds were diluted with dimethyl sulfoxide (DMSO) to stock concentrations and stored in a -20°C freezer. A compound addition program was set up on the ECHO liquid handler, and compounds were added to the plates using the ECHO liquid handler. Retigabine (RTG) was used as a positive control at a highest concentration of 100 µM with 3-fold serial dilutions for a total of 9 doses. Buffer containing 5 mM K^+ and 1 mM Tl^+ was added to the plates. Notes: 1) K2SO4 and Tl2SO4 were prepared in 1× chloride-free buffer. Depending on the voltage-gated potassium channel involved, the concentrations of Tl^+ and K^+ should be adjusted. Tl^+ concentration is approximately 0.5-5 mM, and K^+ concentration is approximately 5-30 mM. 2) Each 1 mM solution of K2SO4 and Tl2SO4 contains 2 mM K^+ and Tl^+; the final concentration should be calculated based on the ion concentration. 3) TlCl readily precipitates and a chloride-free buffer is required. • (3) Day 2 -Assay testing: Once the cells reached the desired confluence, the cell assay plates were removed from the incubator. Assay buffer and diluted Tl^+ dye (Molecular Devices # R8222) were prepared. The medium was discarded using a Bravo liquid handler, and 25 µL of Tl^+ dye was added to each well. After 1 hour of incubation, the cell assay plates, composite plates and FLIPR tips were placed in the FLIPR^TETRA (Molecular Devices, USA) for FLIPR detection. After setting up the tips, baseline readings were taken for 60 seconds, then 12.5 µL was added from the composite plate (3×) to the cell assay plate, and data were recorded for at least 5 minutes. • (4) Data processing: Maximum signals were generated by the FLIPR software. […] Data quality control: S/B > 2.00, Z factor > 0.50.
• (1) Day 1 - Cell preparation: Cells were digested as described above, and cell density and viability were determined using a Cell Countess. The volume of the single-cell suspension was adjusted with complete cell growth medium. Then, hKCNQ2/3_CHO cells were seeded onto PDL-precoated 384-well plates at a density of approximately 20,000 cells/well (30 µL/well). The plates were then incubated overnight in a 37°C, 5% CO2 humidified air incubator. • (2) Day 2 - Compound preparation: Test compounds were diluted with dimethyl sulfoxide (DMSO) to stock concentrations and stored in a -20°C freezer. A compound addition program was set up on the ECHO liquid handler, and compounds were added to the plates using the ECHO liquid handler. Retigabine (RTG) was used as a positive control at a highest concentration of 100 µM with 3-fold serial dilutions for a total of 9 doses. Buffer containing 5 mM K^+ and 1 mM Tl^+ was added to the plates. Notes: 1) K2SO4 and Tl2SO4 were prepared in 1× chloride-free buffer. Depending on the voltage-gated potassium channel involved, the concentrations of Tl^+ and K^+ should be adjusted. Tl^+ concentration is approximately 0.5 mM -5 mM, and K^+ concentration is approximately 5 mM -30 mM.

[3] = test system: maximal electroshock-induced epilepsy model; assay: Maximal electroshock-induced epilepsy model, behavioral pharmacodynamics; format: in vivo; conditions: dose 5 mg/kg, oral, one hour before electrical stimulation; male CD-1 mice
Excerpt: Assay Example 2: Evaluation of the behavioral pharmacodynamics of the test compounds in a maximal electroshock-induced epilepsy model
This study used behavioral tests in male CD-1 mice to investigate the effects of test compounds on acute epileptic seizures behavior induced by maximal electroshock.
Male CD-1 mice (25 to 35g) were used as the experimental animals and fed with standard feed (Beijing Vital River Laboratory Animal Technology Co., Ltd.).
After arriving at the animal facility, the experimental animals needed to acclimatize for at least one week. The mice were observed daily for vital signs, and randomly divided into groups according to their body weights one day before the drug administration. One hour before the electrical stimulation, different dosages of the test compound were orally administered to each group. On the day of the assay, the male CD-1 mice in each group were anesthetized locally at the cornea with 2% lidocaine. Then, silver bipolar electrodes were used to electrically stimulate the cornea of the mice with 18 mA, 60 Hz, a pulse width of 0.6 ms, and a stimulation time of 1 s to induce seizures. Subsequently, the latency of seizures and the duration of limb rigidity in mice after the electrical stimulation were observed, and the protection rate from seizures for each group was statistically analyzed.

[4] = agonistic effect, CHO cells stably expressing hKCNQ2/3, FLIPR thallium flux, read-out: EC50

T1 sequence (O43526 whole entry): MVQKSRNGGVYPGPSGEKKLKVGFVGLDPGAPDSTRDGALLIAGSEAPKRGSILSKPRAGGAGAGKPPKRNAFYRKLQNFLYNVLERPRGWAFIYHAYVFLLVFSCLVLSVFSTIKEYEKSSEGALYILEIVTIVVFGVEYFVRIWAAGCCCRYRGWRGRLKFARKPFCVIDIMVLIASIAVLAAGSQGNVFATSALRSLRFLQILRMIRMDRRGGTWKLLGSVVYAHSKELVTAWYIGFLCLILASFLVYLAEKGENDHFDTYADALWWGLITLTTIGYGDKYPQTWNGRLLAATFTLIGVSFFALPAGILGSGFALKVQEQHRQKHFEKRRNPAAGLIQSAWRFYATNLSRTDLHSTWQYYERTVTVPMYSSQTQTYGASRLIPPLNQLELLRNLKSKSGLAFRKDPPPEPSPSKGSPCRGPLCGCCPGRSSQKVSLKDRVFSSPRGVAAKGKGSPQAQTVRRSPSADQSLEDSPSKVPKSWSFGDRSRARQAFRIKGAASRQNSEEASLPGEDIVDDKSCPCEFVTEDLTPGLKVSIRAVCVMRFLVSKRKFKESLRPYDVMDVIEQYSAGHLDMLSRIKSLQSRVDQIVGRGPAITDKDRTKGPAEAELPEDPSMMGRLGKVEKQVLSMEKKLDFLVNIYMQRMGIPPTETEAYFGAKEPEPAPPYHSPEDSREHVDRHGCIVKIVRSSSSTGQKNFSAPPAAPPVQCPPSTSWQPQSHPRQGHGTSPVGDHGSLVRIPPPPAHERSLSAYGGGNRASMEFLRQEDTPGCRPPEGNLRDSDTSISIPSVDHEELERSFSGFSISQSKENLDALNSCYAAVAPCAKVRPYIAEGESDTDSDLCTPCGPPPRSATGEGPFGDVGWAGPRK
T1 sequence (O43525 whole entry): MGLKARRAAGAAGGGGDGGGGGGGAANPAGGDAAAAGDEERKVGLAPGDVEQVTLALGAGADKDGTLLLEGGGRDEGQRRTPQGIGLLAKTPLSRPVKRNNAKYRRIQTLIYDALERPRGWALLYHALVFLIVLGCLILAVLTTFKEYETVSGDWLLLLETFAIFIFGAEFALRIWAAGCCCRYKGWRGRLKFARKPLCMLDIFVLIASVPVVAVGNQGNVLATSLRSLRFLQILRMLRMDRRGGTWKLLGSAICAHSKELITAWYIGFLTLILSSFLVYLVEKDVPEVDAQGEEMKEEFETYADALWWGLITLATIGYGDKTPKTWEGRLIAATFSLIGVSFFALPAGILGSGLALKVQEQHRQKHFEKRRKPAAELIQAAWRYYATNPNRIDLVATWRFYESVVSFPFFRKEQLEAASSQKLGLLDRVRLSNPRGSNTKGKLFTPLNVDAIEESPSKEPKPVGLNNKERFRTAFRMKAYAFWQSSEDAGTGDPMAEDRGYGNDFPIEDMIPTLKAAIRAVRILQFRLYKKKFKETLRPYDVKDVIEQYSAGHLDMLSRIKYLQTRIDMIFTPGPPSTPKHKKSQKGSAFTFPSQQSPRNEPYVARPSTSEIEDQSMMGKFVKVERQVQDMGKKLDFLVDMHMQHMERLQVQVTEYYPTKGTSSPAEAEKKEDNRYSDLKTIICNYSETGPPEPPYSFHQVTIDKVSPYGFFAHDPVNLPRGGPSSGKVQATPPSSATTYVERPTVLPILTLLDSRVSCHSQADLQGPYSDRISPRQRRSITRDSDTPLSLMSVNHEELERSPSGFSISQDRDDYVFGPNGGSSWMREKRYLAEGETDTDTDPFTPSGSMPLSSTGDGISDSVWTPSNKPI

SMILES: CC(C)(C)CC(=O)Nc1nc2c(F)cc(Nc3ccc(F)cc3)cc2n1C1CCC1 [Compound 4]
half-life ([1]; dose IV:0.5, PO:2 mg/kg): 1.2 h
AUC(0-t) ([1]; dose IV:0.5, PO:2 mg/kg): 2.98 µM·h
bioavailability ([1]; dose IV:0.5, PO:2 mg/kg): 64.2%
clearance ([1]; dose IV:0.5, PO:2 mg/kg): 17.9 mL/min/kg
Cmax ([1]; dose IV:0.5, PO:2 mg/kg): 548 nM
Vd ([1]; dose IV:0.5, PO:2 mg/kg): 2.14 L/kg

SMILES: Cc1c(NC(=O)CC(C)(C)C)n(C)c2cc(Nc3ccc(F)cn3)ccc12 [Compound 11]
EC50 [2]: 200 nM
half-life ([1]; dose IV:0.5, PO:2 mg/kg): 0.7 h
AUC(0-t) ([1]; dose IV:0.5, PO:2 mg/kg): 1.11 µM·h
bioavailability ([1]; dose IV:0.5, PO:2 mg/kg): 62.2%
clearance ([1]; dose IV:0.5, PO:2 mg/kg): 50.3 mL/min/kg
Cmax ([1]; dose IV:0.5, PO:2 mg/kg): 524 nM
Vd ([1]; dose IV:0.5, PO:2 mg/kg): 2 L/kg

SMILES: CCC(=O)Nc1c(C)c2ccc(Nc3ccc(F)cc3)cc2n1C [Compound 16]
EC50 [2, 4]: 700 nM

SMILES: Cc1c(NC(=O)CC2(C)CC2)n(C)c2cc(Nc3ccc(F)cn3)ccc12 [Compound 28]
EC50 [2, 4]: 560 nM

SMILES: Cc1nc(Nc2ccc3c(C)c(NC(=O)CC4(C)CC4)n(C)c3c2)ccc1F [Compound 36]
EC50 [2]: 220 nM
Seizure incidence (%) [3]: 0%
half-life ([1]; dose IV:1, PO:5 mg/kg): 1.7 h
AUC(0-t) ([1]; dose IV:1, PO:5 mg/kg): 29.5 µM·h
bioavailability ([1]; dose IV:1, PO:5 mg/kg): 92.7%
clearance ([1]; dose IV:1, PO:5 mg/kg): 6.9 mL/min/kg
Cmax ([1]; dose IV:1, PO:5 mg/kg): 4750 nM
Vd ([1]; dose IV:1, PO:5 mg/kg): 0.8 L/kg

SMILES: Cc1c(NC(=O)CC(C)(C)C)n(C)c2cc(Nc3ncc(F)cn3)ccc12 [Compound 38]
EC50 [2, 4]: 820 nM

Further lines, results first:

EC50 [2, 4]: 500 nM
SMILES: Cc1c(NC(=O)C2CC2)n(C)c2cc(Nc3ccc(F)cc3)ccc12 [Compound 13]

EC50 [2, 4]: 220 nM
SMILES: Cc1c(NC(=O)C2CCCC2)n(C)c2cc(Nc3ccc(F)cn3)ccc12 [Compound 21]

EC50 [2, 4]: 430 nM
SMILES: Cc1c(NC(=O)C2CCC2)n(C)c2cc(Nc3ccc(F)cn3)ccc12 [Compound 22]

EC50 [2, 4]: 410 nM
SMILES: Cc1ccc(Nc2ccc3c(C)c(NC(=O)CC(C)(C)C)n(C)c3c2)nc1 [Compound 29]

EC50 [2, 4]: 210 nM
SMILES: Cc1c(NC(=O)CC(C)(C)C)n(C)c2cc(Nc3ccc(Cl)cn3)ccc12 [Compound 30]
